A melting point compilation (Tetko et al.)

melting point [°C] | SMILES
74 to 76 | CCCCCCCCCCCCCCCCCCCCC(=O)O
30 | O=C(CCCCl)c1ccc(Cl)cc1
323 | N#Cc1c(-c2cccc(O)c2)c(C#N)c(=O)n(N)c1N
95 | CCOC(OCC)c1cccc2c(Br)ccc([N+](=O)[O-])c12
18 | C#CC(=O)O
235 | Cc1cc(C(F)(F)F)n2nc(N)c(/N=N/c3ccccc3[N+](=O)[O-])c2n1
233 to 235 | Cc1nc(C)c(C(=O)O)s1
10.5 | CC(C)CCCCCCCCCCCO
25.8 | Cc1c(Cl)cccc1Cl
300 | NC(CCCC(N)C(=O)O)C(=O)O (stereo not drawn)
146 to 147 | Nc1ccc(C/C(=N/O)c2ccc(N)cc2)cc1
136 | CC(O)Cn1cnc2c1c(=O)n(C)c(=O)n2C (stereo not drawn)
116 | CCCCC(=O)N(Cc1ccc(-c2ccccc2-c2nnn[nH]2)cc1)C(C(=O)O)C(C)C (stereo not drawn)
-6 | Brc1ccc(Br)s1
70 | C=CCc1ccc(OC)c(OC)c1
203 | COc1cc2ccc(N(C)S(=O)(=O)c3ccc(C)cc3)cc2[nH]1
128 to 134 | O=C(O)C1(c2c(F)cccc2Cl)CCCCC1
39 | CC(COc1ccccc1)N(CCCl)Cc1ccccc1 (stereo not drawn)
247 to 254 | O=C1OC(=O)c2cc([N+](=O)[O-])cc3cccc1c23
75 to 76 | O=C(Cl)c1scc2c1OCCO2
115 | CN1CCN2c3ncccc3Cc3ccccc3C2C1 (stereo not drawn)
70 | COc1cccc2[nH]ccc12
100 | FC(F)(F)c1cc(P(c2cc(C(F)(F)F)cc(C(F)(F)F)c2)c2cc(C(F)(F)F)cc(C(F)(F)F)c2)cc(C(F)(F)F)c1

melting point [°C] | SMILES
198 to 201 | Cc1ccc(C=CC(=O)O)cc1
18 | Cc1c(C)n(C)c2ccccc12
-1 | CCCCCCCC(=O)OC(=O)CCCCCCC
230 | O=C(O)c1ccc(-c2csnn2)cc1
76 to 78 | Cc1ccc(C(Br)C(=O)c2ccc(Cl)cc2)cc1 (stereo not drawn)
119 to 120 | COc1ccc(C(=O)C=Cc2ccc(-c3ccccc3[N+](=O)[O-])o2)cc1OC
225 to 227 | CC(=O)Nc1ccccc1CCNC(=O)c1ccc2ccccc2c1O
176 to 180 | CSc1nnc(N)s1
158 | O=C(/C(=N/Nc1ccc(Br)cc1)S(=O)(=O)c1ccccc1)c1cccs1
190 to 192 | O=C(O)CN(CCO)CCO
106 to 110 | S=C=Nc1c(Br)cc(Br)cc1Br
115 to 116 | COc1ccc(OC)c(S(=O)(=O)Cl)c1
138 | C/C(OCCc1ccc([N+](=O)[O-])cc1)=C(\C#N)c1ccccc1
84 | O=C(NC(=O)C(F)(F)F)C(F)(F)F
42 | CCc1ccc(CCO)nc1
170 to 172 | Cc1c(C(N)=O)[nH]c2ccccc12
50 | O=S(=O)(Cl)c1ccc(F)cc1C(F)(F)F
80.3 | COc1cc(O)cc(O)c1
170 | Cc1nc2n(c(=O)c1CCN1CCC(c3noc4cc(F)ccc34)CC1)CCCC2
87 | N#Cc1cccc(Cl)n1
182 | O=C(O)C1NCCS1 (stereo not drawn)
158 to 159 | COc1ccc(N=C(CNc2ccc(OC)cc2)Nc2ccc(OC)cc2)cc1
86 | c1ncncn1

melting point [°C] | SMILES
222 to 228 | COc1cc2c(cc1OC)Cc1cc(OC)c(OC)cc1Cc1cc(OC)c(OC)cc1C2
121 to 124 | NC(=S)c1csc2ccccc12
80 | CC(C)CCCC(C)C1CCC2C3CC=C4C=CCCC4(C)C3CCC12C (stereo not drawn)
127 to 130 | Cc1ccc(S(=O)(=O)N[C@@H](c2ccccc2)[C@@H](N)c2ccccc2)cc1
52.5 | CCCCCCCCCCCCCCCCCCOC(=O)CCc1cc(C(C)(C)C)c(O)c(C(C)(C)C)c1
265 to 268 | Oc1ccnc2ccc(C(F)(F)F)cc12
83 to 83.5 | O=C(CC1(O)Cc2ccccc21)c1ccccc1 (stereo not drawn)
126 | CC1CCC(O)CC1=CC=C1CCCC2(C)C1CCC2C(C)C=CC(C)C(C)C (stereo not drawn)
195 | COC(=O)c1c(C)cc(OC(=O)c2c(C)cc(O)c(C=O)c2O)c(C)c1O
29 | CC(=O)Cc1ccco1
84 | COc1ccc(COC(C)=O)cc1
134 | CN(C)c1ccc(N=C2C=CC(=O)C=C2)cc1
94 to 96 | Cc1c(C(=O)CBr)cnn1-c1ccccc1
89 | CC(C)C/C(Cc1ccccc1)=N\NC(N)=O
224 to 227 | O=C1[C@H]2Cc3ccccc3C[C@H]2C(=O)[C@@H]2Cc3ccccc3C[C@H]12
138 to 142 | CSC(=CC(=C(C#N)C#N)c1ccc(Br)cc1)SC
83 | Cc1cc([N+](=O)[O-])ccc1N=C=O
178 to 179 | CCOc1nc2ccccc2c(=O)[nH]1
122 | CC(=O)Nc1ccc(F)cc1F
82 | COC(=O)c1cc(C)[nH]n1
77 to 78 | Fc1c(F)c(CCl)c(F)c(F)c1CCl
143 to 148 | Nc1ccnc(N)n1
160 to 165 | O=C(O)C1(c2ccc(F)cc2)CCCC1

melting point [°C] | SMILES
-68 | C[Si](C)(C)O[Si](C)(C)O[Si](C)(C)O[Si](C)(C)C
185 | COc1cc(-c2coc3cc(O)c(OC)c(O)c3c2=O)cc(O)c1OC
43 to 45 | FC(F)(F)c1cc(-n2cccc2)cc(C(F)(F)F)c1
79 to 80 | Cn1ccc2cc(S(=O)(=O)Cl)ccc21
148 | CN(C)c1ccc(N=c2cc(-c3ccccc3)oc(-c3ccccc3)c2)cc1
320 | O=P1(O)Oc2ccc3ccccc3c2-c2c(ccc3ccccc23)O1
94 to 100 | Cc1ccc(S(=O)(=O)N(CCO)CCO)cc1
33.5 | O=CCc1ccccc1
174 | NNC(=O)c1ccc2c(c1)OCO2
178 | Cc1cc(CC(=O)O)n(C)c1C(=O)c1ccc(Cl)cc1
63 | COC(=O)c1cnc(Br)s1
75 | COc1ccc(-n2nc(C(=O)c3cccc4ccccc34)sc2=N)cc1
118 to 122 | CC(C)(C)OC(=O)N1CCCC[C@@H]1C(=O)O
222 | CC(=O)OC1CCC2(C)C(CCC3C4CCC(=NNS(=O)(=O)c5ccc(C)cc5)C4(C)CCC32)C1 (stereo not drawn)
89 to 90 | Cc1cc2nsnc2cc1C
150 to 151 | Nc1ccc(-c2cnco2)cc1
170 to 173 | CSc1ccccc1C(=O)O
240 to 248 | N=C(N)SCCCS(=O)(=O)O
274 to 276 | NC1(P(=O)(O)O)CCCC1
146 | NCC(O)COc1ccccc1 (stereo not drawn)
174 to 177 | CCOC(=O)C(C(N)=S)=C1NN=C(c2ccc(Cl)cc2)O1
225 | O=C(O)C=Cc1c[nH]cn1
101 | COC(=O)c1cc([N+](=O)[O-])ccc1OC

melting point [°C] | SMILES
175 | Cc1nc2ccccc2[nH]c(=O)c1=NNc1ccc(Cl)cc1
100 | OCc1cc2ccccc2s1
238 to 243 | CCCCSCCC(N)C(=O)O (racemic)
97.2 | COC(=O)C1(S(=O)(=O)c2ccc(C)cc2)CC1
80 | COC(=O)c1scc(Br)c1O
256 | Cc1cccc(C)c1NC(=O)C(C)N (stereo not drawn)
168 | S=C(/N=N/c1ccccc1)NNc1ccccc1
223 to 225 | O=C1Nc2ccccc2C=NC2CCCCC2N=Cc2ccccc2NC1=O (stereo not drawn)
111 | N#Cc1cc2ccccc2c2ccccc12
189 to 190 | NC(=O)NN=C(c1cc2ccccc2o1)c1cc2ccccc2o1
182 to 184 | NC(=O)Nc1cccc(O)c1
171 | CCN1CCN(C(=O)N[C@@H](C(=O)O)c2ccccc2)C(=O)C1=O
232 | O=C(O)c1cn(S(=O)(=O)c2ccccc2)c2ccccc12
311 | N#CC(=Cc1ccc([N+](=O)[O-])cc1)C(N)=S
194 | COc1ccc(CC(=O)C(=O)O)cc1
317 to 318 | Cc1cc(=O)[nH]c(=S)[nH]1
262 | CN(C)c1ccc(C=C2C(=O)NN=C2c2c(O)c3ccccc3n(C)c2=O)cc1
182 | CCN1CCCC1CNC(=O)c1cc(S(=O)(=O)CC)ccc1OC (stereo not drawn)
209 | C=CC(N)CCC(=O)O (stereo not drawn)

SMILES | melting point [°C]
CCCCOC(=O)C1(O)c2ccccc2-c2ccccc21 | 71
O=[N+]([O-])c1cc(Cl)c(O)c(Cl)c1 | 127
CCNc1ccc([N+](=O)[O-])cc1[N+](=O)[O-] | 108 to 119
CCCCOCN(C(=O)CCl)c1c(CC)cccc1CC | -0.55
CCc1ccc([N+](=O)[O-])cc1 | -12
Cc1c([N+](=O)[O-])cc2c(c1[N+](=O)[O-])C(C)(C)CC2(C)C | 132
CC12CCC3C(CCC4CCCCC43C)C1CCC2=O (stereo not drawn) | 121
O=C=Nc1ccccc1Cl | 30.5
CNCc1nn(C)c2ccccc12 | 37 to 40
FC(F)(F)c1ccc(N2CCNCC2)cc1 | 89 to 92
CC(=O)C=Cc1ccc(Cl)cc1 | 55
COc1ccc(-n2c(=S)[nH]c3ccccc3c2=O)cc1 | 307 to 310
CNC1(c2ccccc2Cl)CCCCC1=O (stereo not drawn) | 92.5
CC1(C)C(C=C(Br)Br)C1C(=O)OC(C#N)c1cccc(Oc2ccccc2)c1 (stereo not drawn) | 100
CC[C@@]1(O)CC[C@H]2[C@@H]3CCC4CC(OC(C)=O)CC[C@]4(C)[C@H]3CC[C@@]21C (stereo partly drawn) | 164 to 165
Fc1ccc(Br)c(CBr)c1 | 35
CC(=O)OC1CCC2C3CCC4CC(C(C)=O)=CCC4(C)C3CCC12C (stereo not drawn) | 115 to 140
